Measurements published in the NIST ThermoML archive (doi:10.1016/j.jct.2007.11.011).

Experiment: xn = mol fraction of the nth substance listed
Details: Liquid

CCOS(=O)(=O)[O-].CCn1cc[n+](C)c1 [1-ethyl-3-methylimidazolium ethyl sulfate] + CO
mass density [kg/m3]
Details	100 kPa	2500 kPa	5000 kPa	10000 kPa	15000 kPa	20000 kPa	25000 kPa	30000 kPa	35000 kPa
303.15 K, x1 = 0.04781	–	–	–	–	–	892.79	896.28	899.65	902.86
303.15 K, x1 = 0.1026	–	–	–	–	–	965.4	968.54	971.57	974.42
303.15 K, x1 = 0.1977	–	–	–	–	–	1047.97	1050.68	1053.34	1055.86
303.15 K, x1 = 0.2432	–	–	–	–	–	1076.28	1078.9	1081.44	1083.87
303.15 K, x1 = 0.3026	–	–	–	–	–	1106.82	1109.29	1111.72	1114.04
303.15 K, x1 = 0.3887	–	–	–	–	1137.67	1140.05	1142.39	1144.7	1146.89
303.15 K, x1 = 0.485	–	–	–	–	1165.38	1167.67	1169.9	1172.11	1174.2
303.15 K, x1 = 0.589	–	–	–	–	1187.91	1190.1	1192.25	1194.38	1196.4
303.15 K, x1 = 0.7289	–	–	–	–	1210.81	1212.92	1214.99	1217.04	1219
303.15 K, x1 = 0.8521	–	–	–	–	1225.51	1227.56	1229.58	1231.59	1233.49
303.15 K, x1 = 0.9397	–	–	–	–	1234.67	1236.7	1238.71	1240.68	1242.56
313.15 K, x1 = 0.04781	868.71	870.87	873	877.12	881.03	884.83	888.46	891.58	896.52
313.15 K, x1 = 0.1026	943.67	945.44	947.28	950.87	954.31	957.65	960.89	964.01	967.07
313.15 K, x1 = 0.1977	1028.79	1030.21	1031.77	1034.78	1037.72	1040.6	1043.41	1046.12	1048.8
313.15 K, x1 = 0.2432	1057.64	1059.08	1060.59	1063.49	1066.28	1069.03	1071.73	1074.34	1076.92
313.15 K, x1 = 0.3026	1088.94	1090.22	1091.62	1094.33	1097	1099.6	1102.15	1104.62	1107.08
313.15 K, x1 = 0.3887	1122.96	1124.22	1125.52	1128.06	1130.57	1133.05	1135.46	1137.8	1140.13
313.15 K, x1 = 0.485	1151.19	1152.35	1153.6	1156.03	1158.42	1160.76	1163.07	1165.3	1167.55
313.15 K, x1 = 0.589	1174.15	1175.21	1176.41	1178.75	1181.04	1183.3	1185.51	1187.68	1189.83
313.15 K, x1 = 0.7289	1197.48	1198.52	1199.65	1201.89	1204.09	1206.26	1208.39	1210.48	1212.56
313.15 K, x1 = 0.8521	1212.41	1213.23	1214.31	1216.48	1218.62	1220.72	1222.81	1224.83	1226.88
313.15 K, x1 = 0.9397	1221.68	1222.7	1223.82	1225.96	1228.06	1230.16	1232.21	1234.23	1236.23
323.15 K, x1 = 0.04781	859.88	862.14	864.43	–	–	–	–	–	–
323.15 K, x1 = 0.1026	935.3	937.17	939.08	–	–	–	–	–	–
323.15 K, x1 = 0.1977	1020.88	1022.39	–	–	–	–	–	–	–
323.15 K, x1 = 0.2432	1049.97	1051.46	–	–	–	–	–	–	–
323.15 K, x1 = 0.3026	1081.45	1082.65	–	–	–	–	–	–	–
323.15 K, x1 = 0.3887	1115.61	1116.83	–	–	–	–	–	–	–
323.15 K, x1 = 0.485	1143.95	1145.15	–	–	–	–	–	–	–
323.15 K, x1 = 0.589	1167	1168.12	–	–	–	–	–	–	–
323.15 K, x1 = 0.7289	1190.46	1191.53	–	–	–	–	–	–	–
323.15 K, x1 = 0.8521	1205.38	1206.3	–	–	–	–	–	–	–
323.15 K, x1 = 0.9397	1214.87	1215.9	–	–	–	–	–	–	–
